Results as given in patent US9290501B2, “Methods, assays and compounds for treating bacterial infections by inhibiting methylthioinosine phosphorylase” (Albert Einstein College of Medicine, Inc., priority 2010, dated 2016).
Several values for one entry are separate records, joined by “and”; a condition that tells them apart may be missing. Equal values may be shown once. Read-outs that look alike come from different tables or passages of the source. Values belong to the compound of their own block, whether it stands above or below them.

What was measured:
PaMTIP [1] = molecular target: T1, PaMTIP (Pseudomonas aeruginosa (strain ATCC 15692 / DSM 22644 / CIP 104116 / JCM 14847 / LMG 12228 / 1C / PRS 101 / PAO1), UniProt Q9HZK1); assay: biochemical
Experimental: Assays for slow-onset inhibitors were carried out by adding 1 nM PaMTIP into reaction mixtures at 25° C. containing 100 mM Hepes, pH 7.4, 100 mM phosphate, pH 7.4, 2 mM MTI, 5 mM DTT, 0.5 unit of xanthine oxidase and variable inhibitor concentration. Inhibitors were present at >10 times the enzyme concentration, required to simplify data analysis (24). Assays for MTA inhibition used 200 μM MTI. Controls having no enzyme and no inhibitor were included in all of the inhibition assays. Inhibition constants were obtained by fitting initial rates with variable inhibitor concentrations to equation (1) using GraFit 5 (Erithacus Software):
[formula] where vi is the initial rate in the presence of inhibitor, vo is the initial rate in the absence of inhibitor, Km is the Michaelis constant for MTI, [S] and [I] are MTI and inhibitor concentrations, respectively, and Ki is the inhibition constant. Slow-onset inhibitors display a second phase of tighter binding after reaching a thermodynamic equilibrium with the enzyme. The equilibrium constant for the second binding phase is indicated as Ki*. This constant was obtained by fitting initial final rates and inhibitor concentrations to equation (1) using GraFit 5 (22).

PfPNP [2] = molecular target: T2, PfPNP (Plasmodium falciparum (isolate 3D7), UniProt Q8I3X4); settings: read-out: dissociation constants; cited from earlier work
PaMTIP [3] = molecular target: T1, PaMTIP; type: biochemical; settings: for fold decreases of Kcat/Km in comparison with those of MTI / kcat/Km: PaMTIP; for Km / kcat: PaMTIP phosphorolysis, 100 mM phosphate, pH 7.4, 25° C.
Experimental: Product formation was monitored by conversion of hypoxanthine to uric acid by xanthine oxidase (22). The extinction coefficient of this assay was 12.9 mM^−1cm^−1 at 293 nm. Enzyme activity with adenosine or MTA as substrates was determined by conversion of adenine to 2,8-dihydroxyadenine using the same coupling enzyme (23). Its extinction coefficient at 293 nm was 15.2 mM^−1cm^−1. Reactions were carried out at 25° C. in 1 cm cuvettes, 1 mL volumes of 100 mM Hepes, pH 7.4, 100 mM phosphate, pH 7.4, variable concentrations of nucleoside substrate, 0.5 unit of xanthine oxidase, 5 mM DTT, and appropriate amounts of purified MTIP. Reactions were initiated by addition of enzyme and the initial rates were monitored with a CARY 300 UV-Visable spectrophotometer. Control rates (no PaMTIP) were subtracted from initial rates. Km and kcat values for PaMTIP were obtained by fitting initial rates to the Michaelis-Menten equation using GraFit 5 (Erithacus Software).

PfADA = PfADA (Plasmodium falciparum (isolate 3D7), UniProt Q8IJA9); settings: PfADA deamination; cited from earlier work
PfPNP [4] = molecular target: T2, PfPNP; settings: cited from earlier work
[5] = initial binding phase, 2 mM MTI, 25° C., pH 7.4, values ± S.E., read-out: Ki
[6] = second tighter binding phase of slow-onset inhibition, values ± S.E., read-out: Ki*

SMILES: CSC[C@@]1(O)CN(Cc2c[nH]c3c(=O)[nH]cnc23)C[C@@H]1O [4′-HO-MT-DADMe-ImmH, (3S,4R)-1-[(9-deazahypoxanthin-9-yl)methyl]-3,4-dihydroxy-4-methylthiomethylpyrrolidine]
- inhibitor potency in words (PaMTIP [1]): nanomolar inhibitor

SMILES: CSC[C@H]1CN(Cc2c[nH]c3c(=O)[nH]cnc23)C[C@@H]1O [MT-DADMe-ImmH, (3R,4S)-1-[(9-deazahypoxanthin-9-yl)methyl]-3-hydroxy-4-(methylthiomethyl)pyrrolidine]
- Ki (PaMTIP [1]; Ki*, second tighter binding phase of slow-onset inhibition, values ± S.E.): 0.34 ± 0.02 nM
- Ki (PaMTIP [1]; [5]): 0.8 ± 0.1 nM
- Ki (PfPNP [2]): 0.9 nM

- Ki (PaMTIP [1]; [6]): 0.096 nM
SMILES: CSCC(CO)NCc1c[nH]c2c(=O)[nH]cnc12 (stereo not shown) [MT-SerMe-ImmH]

SMILES: CSCC(CO)(CO)NCc1c[nH]c2c(=O)[nH]cnc12 [MT-TrisMe-ImmH, 7-((1,3-dihydroxy-2-(methylthiomethyl)propan-2-ylamino)methyl)-3H-pyrrolo[3,2-d]pyrimidin-4(5H)-one]
- Ki (PaMTIP [1]; Ki): 19 nM

SMILES: O=c1[nH]cnc2c([C@@H]3N[C@H](CSc4ccccc4)[C@@H](O)[C@H]3O)c[nH]c12 [PhT-ImmH]
- mode of inhibition (PaMTIP [1]): slow-onset, tight-binding inhibition
- Ki (PaMTIP [1]; [5]): 0.66 ± 0.09 nM
- Ki (PaMTIP [1]; [6]): 0.035 nM

SMILES: CCCSC[C@H]1CN(Cc2c[nH]c3c(=O)[nH]cnc23)C[C@@H]1O [PrT-DADMe-ImmH]
- fold tighter binding / enhanced potency relative to MT-DADMe-ImmH (PaMTIP [1]): 4 fold

SMILES: Nc1ncnc2c1ncn2[C@@H]1O[C@H](CO)[C@@H](O)[C@H]1O [adenosine]
- fold decreases of Kcat/Km in comparison with those of MTI (PaMTIP [3]): 750 fold
- kcat/Km (PaMTIP [3]): 2400 M⁻¹ s⁻¹
- Km (PaMTIP [3]): 23 ± 1 µM
- kcat (PaMTIP [3]): 0.0549 s⁻¹ and 0.0549 ± 0.0005 s⁻¹
- kcat/Km (PaMTIP [3]; Table 2): 2.4 ± 0.1 × 10^3 M^−1s^−1
- kcat/Km (PfADA): 62000 M⁻¹ s⁻¹

SMILES: OC[C@H]1O[C@@H](n2cnc3c(O)ncnc32)[C@H](O)[C@@H]1O [inosine]
- fold decreases of Kcat/Km in comparison with those of MTI (PaMTIP [3]): 300 fold
- kcat/Km (PaMTIP [3]): 6300 M⁻¹ s⁻¹
- Km (PaMTIP [3]): 90 ± 20 µM
- kcat (PaMTIP [3]): 0.57 s⁻¹ and 0.57 ± 0.04 s⁻¹
- kcat/Km (PaMTIP [3]; Table 2): 6 ± 1 × 10^3 M^−1s^−1
- kcat/Km (PfPNP [4]): 360000 M⁻¹ s⁻¹
